Results: US5384260A, “Detection of onset of antiestrogen resistance in breast cancer” (Board of Regents, The University of Texas System, priority 1993, dated 1995)
Values joined by “and” are separate entries in the source; they are usually repeats but may differ in a detail not shown here. Identical values can stand only once. “Also recorded” adds a separate entry of the source. Blank lines part the entries; values can stand above or below the compound they belong to.

Columns and labels:
[1] = test system: T47D human breast cell; conditions: cited from earlier work
[2] = test system: MCF-7 tumors; test: HPLC of tamoxifen and metabolites in MCF-7 mouse tumors (Example 3); conditions: for Presence in MCF-7 tamoxifen resistant mouse tumor: HPLC, FIG. 13
Text: (§1) Human breast tumors from various patients who failed tamoxifen therapy (20 mgs/day>one year) were obtained from the Breast Cancer Tumor Bank. A portion of the tumor was extracted, irradiated and analyzed by Mass Spectrometry (procedure described below). Tumor tissue was also obtained from an in vivo nude mouse model of acquired tamoxifen resistance. MCF-7 human breast tumors were harvested from nude mice after the development of tamoxifen resistance (4-6 months of tamoxifen administration, 500 ug/day). These tissues were frozen at -20° C. until analysis. Frozen tissue samples were weighed, homogenized, and extracted. Briefly, all samples were extracted with 6.0 ml of 2% butanol in hexane, vortexed for 1.0 min, and then centrifuged for 10 min at 1000×g. The organic phase was dried under N2 gas at 37° C. and reconstituted in 200 μl methanol prior to injection. The reconstituted samples were transferred to a Infrasil quartz cuvette (Fisher Scientific), irradiated for one minute with a 15 W Hg vapor lamp and injected onto a HPLC column.
(§2) The HPLC system consisted of a Beckman model 320 gradient liquid chromatograph, two model 110A pumps, and a model 420 controller. The HPLC was equipped with a reverse phase Altex C18 ultrasphere ODS column and a 100 μl injection loop. […] The flow rate of the mobil phase was set at 0.5 ml/min. The fluorescence of photochemically activated compounds was detected with an Applied Biosystems 980 fluorometer with excitation wavelength set at 266 nm. Retention times and peak heights were recorded with a Spectraphysics 4100 integrator.

[3] = as above; conditions: mouse, mcf-7 tumor, 500 ug/day
Text: as §1, §2

[4] = in vivo; cited from earlier work
[5] = in vitro; cited from earlier work
[6] = test system: human tumor specimens; test: HPLC of tamoxifen and 4-OH-TAM isomers in tumors of tamoxifen-treated patients (Example 2); format: in vivo; conditions: for cis versus trans 4-OH-TAM in tumor nuclear pellets: patients with clinically-evident tumor resistance, FIG. 8
Procedure: (§3) Quantification of tamoxifen and its metabolites in tumor specimens was performed using photactivation and high performance liquid chromatography (HPLC) analysis. To summarize: Each tumor sample was weighed, spiked with an internal standard, and homogenized. Tissue samples were then extracted with 2% n-butanol in hexane and irradiated with high intensity ultraviolet light (254 nm). Samples were analyzed by HPLC using a C-18 reverse phase column and eluted isocratically with a mobile phase of water (7%) and triethylamine (0.25%) in methanol. All solvents were of HPLC grade. Fluorescence of all compounds was measured at a wavelength of 266 nm. […] In some samples, the tumor was first homogenized and then the nuclear pellet obtained by centrifugation. HPLC tamoxifen measurements were made on extracts of the entire tumor specimen or on subcellular fractions including the cytosol or-the total nuclear pellet. In some cases, the nuclear pellet was further extracted in 0.4M KCl to extract primary metabolites bound to estrogen receptor.
1) identification and measurement of tamoxifen and its metabolites in tumors isolated from tamoxifen-treated patients who are known treatment failures;
There are two tamoxifen-sensitive tumors (L281 and G375) for comparison because patients responding to treatment are not usually biopsied during the responsive phase of their disease.

[7] = test system: human breast tumors; test: HPLC and mass spectrometry of tamoxifen metabolites in human breast tumors failing tamoxifen (Example 3); format: in vivo; conditions: HPLC / EI-MS
Text: as §1
The HPLC system consisted of a Beckman model 320 gradient liquid chromatograph, two model 110A pumps, and a model 420 controller. The HPLC was equipped with a reverse phase Altex C18 ultrasphere ODS column and a 100 μl injection loop. The mobil phase consisted of 7% H2 O and […] triethylamine in methanol. The flow rate of the mobil phase was set at 0.5 ml/min. The fluorescence of photochemically activated compounds was detected with an Applied Biosystems 980 fluorometer with excitation wavelength set at 266 nm. Retention times and peak heights were recorded with a Spectraphysics 4100 integrator.
Non-irradiated samples were also injected onto the HPLC column and fractions were collected every minute. Fractionations corresponding to the retention times noted for the bisphenol and monophenol tamoxifen were further evaluated using mass-Spectrometry. The mass spectrometric behavior of the mono and bis phenols under electron impact ionization mass-spectrometry (EI-MS) was utilized. HPLC separated samples, in glass vials, were extracted with methanol, injected into glass capillaries and dried. Samples were introduced via a direct insertion probe. Spectra were recorded at 70 eV over the mass range of 70-500 at 10 seconds per decade with a resolution of 1000. The probe was heated in stages to 200° C.

[8] = cited from earlier work
[9] = test system: MCF-7 tumors; test: HPLC quantification of tamoxifen and cis/trans-4-hydroxytamoxifen ratio in MCF-7 tumors from tamoxifen-treated mice (total tumor, nuclear pellet, KCl nuclear extract); format: in vivo; conditions: for Mean 4-OH-TAM cis/trans ratio: p < 0.0005
Procedure: In order to examine the relationship between tamoxifen metabolites and tamoxifen resistance, athymic Balb/c nude mice were implanted with human breast cancer tumor cells (MCF-7). Mice were treated daily for 4-6 months with subcutaneous tamoxifen. After tamoxifen resistance developed and tumor progression was observed, mice were sacrificed, and tumors were collected. In addition, tamoxifen-sensitive tumors were collected from mice still responding to tamoxifen therapy.
as §3, with “Samples were analyzed by HPLC using a C-18 reverse phase column and eluted isocratically with a mobile phase of water (7%) and triethylamine (0.25%) in methanol.” left out
The material extracted with KCl includes that bound to estrogen receptor.

[10] = resistant MCF-7 mouse tumors, N = 10 (N-DES 9, monophenol 8)
[11] = sensitive MCF-7 mouse tumors, N = 6 (bisphenol 5)

Structure (SMILES): CC/C(=C(/c1ccccc1)c1ccc(O)cc1)c1ccccc1 [cis-metabolite E]
Estrogen agonist activity of metabolite E isomers [1]: potent estrogen agonist | Stimulation of T47D human breast cell growth [1]: more potent than bisphenol

Structure (SMILES): CCC(=C(c1ccccc1)c1ccc(OCCNC)cc1)c1ccccc1 [N-desmethyltamoxifen]
Tamoxifen and metabolite concentrations, individual animal ([2]; resistant MCF-7 mouse tumors): 19.65 .eta.g/g tissue and 68.12 .eta.g/g tissue and 38.44 .eta.g/g tissue and 135.44 .eta.g/g tissue and 50.27 .eta.g/g tissue and 65.70 .eta.g/g tissue and 127.29 .eta.g/g tissue and 100.43 .eta.g/g tissue | Tamoxifen and metabolite concentrations, mean (X) [2, 10]: 71.28 .eta.g/g tissue | Tamoxifen and metabolite concentrations, individual animal ([2]; sensitive MCF-7 mouse tumors): 124.70 .eta.g/g tissue and 331.82 .eta.g/g tissue and 534.62 .eta.g/g tissue and 5.95 .eta.g/g tissue and 322.99 .eta.g/g tissue and 359.67 .eta.g/g tissue | Tamoxifen and metabolite concentrations, mean (X) [2, 11]: 279.95 .eta.g/g tissue | concentration at 4380 h [3]: 135 ng/g | Occurrence in human serum [4]: major metabolite found in human serum

Structure (SMILES): CC/C(=C(\c1ccccc1)c1ccc(O)cc1)c1ccccc1 [Trans-metabolite E]
Estrogen agonist activity of metabolite E isomers [1]: weak partial agonist | Isomerization to cis metabolite E [5]: demonstrated in vitro

Structure (SMILES): CC/C(=C(/c1ccc(O)cc1)c1ccc(OCCN(C)C)cc1)c1ccccc1 [cis 4-hydroxytamoxifen]
cis versus trans 4-OH-TAM in tumor nuclear pellets [6]: higher cis 4-OH-TAM in the nuclear pellets

Structure (SMILES): CC/C(=C(\c1ccc(O)cc1)c1ccc(OCCN(C)C)cc1)c1ccccc1 [trans 4-hydroxytamoxifen]
40H trans peak height ([6]; pellet (KCl nuclear extract), nd = not detectable, listed as 40H trans): 1024 and 1194

Structure (SMILES): CCC(=C(c1ccc(O)cc1)c1ccc(OCCN(C)C)cc1)c1ccccc1 [4-OH-TAM, 4-hydroxytamoxifen]
Cis/trans 4-OH-TAM ratio, individual tumor ([9]; resistant MCF-7 tumors (N = 16)): 0.86 and 0.812 and 0.442 and 0.929 and 1.019 and 0.777 and 1.073 and 0.49 and 0.724 and 0.868 and 0.59 and 0.73 and 1.16 and 0.76 and 0.932 | cis 4-OH-TAM/trans-4-OH-TAM ratio in KCl-extracted nuclear pellets compared with other fractions ([9]; resistant tumor, FIG. 7): larger in the nuclear pellets extracted with KCl | C/T-OH-TAM ratio (summary) ([9]; resistant tumors): 0.8-0.9 | Median cis/trans 4-OH-TAM ratio ([9]; resistant tumors): 0.84 | Number of tumors with cis/trans ratio > 0.60 ([9]; resistant tumors): 13/16 | Number of tumors with cis/trans ratio ≤ 0.60 ([9]; resistant tumors): 3/16 | Range of cis/trans 4-OH-TAM ratio ([9]; resistant tumors): 0.442-1.16 | Mean 4-OH-TAM cis/trans ratio ([9]; resistant tumors, SD = 0.196): 0.8141 | cis/trans 4-OH-TAM ratio, resistant compared with sensitive tumors ([9]; resistant vs sensitive): higher cis/trans ratios; also recorded: increase; also recorded: lower in sensitive than in resistant tumors; also recorded: the cis/trans ratio is higher in the resistant tumor | Cis/trans 4-OH-TAM ratio, individual tumor ([9]; sensitive MCF-7 tumors (N = 16)): 0.575 and 0.588 and 0.472 and 0.56 and 0.645 and 0.428 and 0.446 and 0.4632 and 0.476 and 0.506 and 0.34 and 0.486 and 0.38 and 1.0 and 0.77 | C/T-OH-TAM ratio (summary) ([9]; sensitive tumors): 0.4-0.5 | Median cis/trans 4-OH-TAM ratio ([9]; sensitive tumors): 0.48 | Number of tumors with cis/trans ratio > 0.60 ([9]; sensitive tumors): 3/16 | Number of tumors with cis/trans ratio ≤ 0.60 ([9]; sensitive tumors): 13/16 | Range of cis/trans 4-OH-TAM ratio ([9]; sensitive tumors): 0.34-1.0 | Mean 4-OH-TAM cis/trans ratio ([9]; sensitive tumors, SD = 0.168): 0.5297 | cis versus trans 4-OH-TAM in tumor nuclear pellets [6]: greater cis than trans levels | cis/trans ratios in total tumor extract ([6]; tamoxifen-resistant patients' tumors, majority): relatively high cis/trans ratios in the total tumor extract | cis/trans ratios ([6]; two tumors from tamoxifen-sensitive patients): low cis/trans ratios

More lines, main results first:

Presence in human breast cancer tissue [7]: confirmed the presence of monophenol | Tamoxifen and metabolite concentrations, mean (X) [2, 10]: 49.35 .eta.g/g tissue | Tamoxifen and metabolite concentrations, mean (X) [2, 11]: 119.78 .eta.g/g tissue | concentration at 4380 h [3]: 22 ng/g
Structure (SMILES): CCC(=C(c1ccccc1)c1ccc(O)cc1)c1ccccc1 [monophenol]
Presence in human breast cancer tissue ([7]; listed as monophenoltamoxifen): present in tumors isolated from patients who failed tamoxifen therapy | Tamoxifen and metabolite concentrations, individual animal ([2]; resistant MCF-7 mouse tumors): 24.30 .eta.g/g tissue and 9.63 .eta.g/g tissue and 21.99 .eta.g/g tissue and 20.66 .eta.g/g tissue and 232.66 .eta.g/g tissue and 47.82 .eta.g/g tissue and 27.13 .eta.g/g tissue | Tamoxifen and metabolite concentrations, individual animal ([2]; sensitive MCF-7 mouse tumors): 7.69 .eta.g/g tissue and 109.07 .eta.g/g tissue and 160.99 .eta.g/g tissue and 37.72 .eta.g/g tissue and 265.25 .eta.g/g tissue and 137.93 .eta.g/g tissue | Presence in dog bile ([8]; dog, in vivo): isolated from the bile of dogs | Share of radiolabeled compounds present in bile ([8]; dogs): approximately 6%

Presence in human breast cancer tissue [7]: Peaks were also noted | Presence in MCF-7 tamoxifen resistant mouse tumor [2]: noted on the chromatogram
Structure (SMILES): CCC(=C(c1ccc(O)cc1)c1ccc(OCCNC)cc1)c1ccccc1 [metabolite Bx]

Presence in human breast cancer tissue ([7]; listed as bisphenoltamoxifen): also present in these patients | Tamoxifen and metabolite concentrations, mean (X) [2, 10]: 21.33 .eta.g/g tissue | Tamoxifen and metabolite concentrations, mean (X) [2, 11]: 392.43 .eta.g/g tissue
Structure (SMILES): CCC(=C(c1ccc(O)cc1)c1ccc(O)cc1)c1ccccc1 [bisphenol]
Presence in human breast cancer tissue [7]: the presence of bisphenol could not be confirmed | Presence in MCF-7 tamoxifen resistant mouse tumor [2]: A very small peak was evident at a retention time similar to bisphenol | Tamoxifen and metabolite concentrations, individual animal ([2]; resistant MCF-7 mouse tumors): 15.12 .eta.g/g tissue and 18.34 .eta.g/g tissue and 4.26 .eta.g/g tissue and 3.93 .eta.g/g tissue and 32.75 .eta.g/g tissue and 9.77 .eta.g/g tissue and 43.87 .eta.g/g tissue and 52.72 .eta.g/g tissue and 23.38 .eta.g/g tissue | Tamoxifen and metabolite concentrations, individual animal ([2]; sensitive MCF-7 mouse tumors): 44.27 .eta.g/g tissue and 33.90 .eta.g/g tissue and 39.80 .eta.g/g tissue and 1491.44 .eta.g/g tissue and 352.76 .eta.g/g tissue

Presence in human breast cancer tissue [7]: Peaks were also noted
Structure (SMILES): CCC(=C(c1ccccc1)c1ccc(OCCN)cc1)c1ccccc1 [metabolite Z, didesmethyltamoxifen]
